The source of these data is patent US9409864B2, “Sulfonamide TRPA1 receptor antagonists” (ARIO PHARMA LIMITED, priority 2013, dated 2016).

Molecules are shown by their SMILES.

The target of this assay is T1, native human TRPA1 receptors (Homo sapiens, UniProt O75762).
T1 construct: stably expressing native human TRPA1 receptors were used; endogenous in cells; host or cells: A549 human lung adenocarcinoma epithelial cell line
Kind of assay: PF-4840154 (1 μM)-induced Ca2+ fluorescence measurements in A549 cell line. Format: cell-based. The note with it: for inhibition at 10 µM: 10 μM compound against 1 μM PF-4840154, A549 cells; for IC50: against PF-4840154 (1 μM)-evoked [Ca2+]i mobilization, A549 cells. On the procedure: PF-4840154 (1 μM)-Induced Ca^2+ Fluorescence Measurements in A549 Cell Line
Human lung adenocarcinoma epithelial cell line (A549) stably expressing native human TRPA1 receptors were used. The cells were cultured in medium consisting of Eagle's minimal essential medium (EMEM) supplemented with 10% fetal bovine serum (FBS), penicillin (100 IU/ml), streptomycin ([…]), L-glutamine (2 mM), sodium bicarbonate (2.5 g/L) and HEPES (24 mM). Cells were kept at 37° C. in 5% CO2/humidified air. For the experiments the cells were seeded at a density of 16,000 cells/well into 96-well black, clear-bottom plates. After 24 hours incubation the cells were loaded with medium supplemented with 2.5 mM probenecid, 3 μM of the calcium sensitive fluorescent dye Fluo-4 AM and 0.01% pluronic acid, for 30 min at 37° C. Afterwards the loading solution was aspirated and 100 μl/well of assay buffer: Hank's Balanced Salt Solution (HBSS) supplemented with 2.5 mM probenecid and 500 μM Brilliant Black (Aldrich) was added. Stock solutions (100 mM) of ligands were made in Dimethyl Sulfoxide (DMSO) and stored at −20° C. Serial dilutions of ligands for experimental use were made in HBSS buffer. After placing both plates (cell culture and compound plate) into the FlexStation II (Molecular Device, Union City, Calif. 94587, US), fluorescence changes were measured. On-line additions were carried out in a volume of […]. To facilitate drug diffusion into the wells in antagonist type experiments, the studies were performed at 36.5° C. and three cycles of mixing (25 μl from each well moved up and down 3 times) were performed immediately after antagonist injection to the wells. All exemplified compounds were tested alone (to address residual agonistic activity) and against 1 μM of PF-4840154 to address inhibitory activity at the initial concentration of 10 μM. For selected examples the entire inhibitory concentration-response curves were constructed and the IC50 value calculated.
PF-4840154 (1 μM) increased [Ca^2+] in the vast majority (95%) of cultured cells which were thereby identified as TRPA1 expressing cells.

T1 sequence (O75762 whole entry): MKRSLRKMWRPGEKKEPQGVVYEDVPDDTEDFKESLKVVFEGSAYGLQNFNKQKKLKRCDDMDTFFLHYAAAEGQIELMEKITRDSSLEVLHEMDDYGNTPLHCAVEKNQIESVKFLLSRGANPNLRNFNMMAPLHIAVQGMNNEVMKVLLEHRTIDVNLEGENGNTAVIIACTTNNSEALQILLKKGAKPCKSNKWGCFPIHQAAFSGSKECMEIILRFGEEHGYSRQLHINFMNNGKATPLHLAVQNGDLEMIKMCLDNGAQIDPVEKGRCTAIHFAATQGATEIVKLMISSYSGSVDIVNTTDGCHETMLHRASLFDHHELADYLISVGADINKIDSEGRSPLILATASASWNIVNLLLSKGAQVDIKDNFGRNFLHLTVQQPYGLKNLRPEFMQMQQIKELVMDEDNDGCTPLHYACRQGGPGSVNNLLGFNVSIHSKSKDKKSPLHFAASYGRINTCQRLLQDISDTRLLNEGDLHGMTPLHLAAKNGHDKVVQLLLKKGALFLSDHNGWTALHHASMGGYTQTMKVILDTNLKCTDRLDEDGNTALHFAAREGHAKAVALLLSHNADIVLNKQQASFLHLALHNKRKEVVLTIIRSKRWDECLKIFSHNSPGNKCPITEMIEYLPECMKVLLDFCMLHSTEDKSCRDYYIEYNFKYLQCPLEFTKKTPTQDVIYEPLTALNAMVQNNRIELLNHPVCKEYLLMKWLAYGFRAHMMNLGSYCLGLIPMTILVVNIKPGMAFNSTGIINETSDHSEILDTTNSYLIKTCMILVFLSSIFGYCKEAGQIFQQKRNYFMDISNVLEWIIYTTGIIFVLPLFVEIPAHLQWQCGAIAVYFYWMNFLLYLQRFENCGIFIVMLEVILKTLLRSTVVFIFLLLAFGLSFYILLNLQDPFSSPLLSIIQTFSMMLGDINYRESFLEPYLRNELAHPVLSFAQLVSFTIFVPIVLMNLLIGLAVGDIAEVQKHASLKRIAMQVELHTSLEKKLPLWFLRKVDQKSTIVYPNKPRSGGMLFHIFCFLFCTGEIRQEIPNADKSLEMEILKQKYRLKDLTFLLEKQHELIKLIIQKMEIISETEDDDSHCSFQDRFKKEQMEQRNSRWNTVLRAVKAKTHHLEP

`C=C(C(=O)NCc1ccnc(-c2ccc(OC(F)(F)F)cc2)c1)N(C)S(=O)(=O)c1ccc(F)cc1` [Example 2, 2-[(4-fluorophenyl)sulfonyl-methyl-amino]-N-[[2-[4-(trifluoromethoxy)phenyl]-4-pyridyl]methyl]prop-2-enamide] registered an inhibition at 10 µM of 98% and an IC50 of 135 nM.
`C=C(C(=O)NCc1ccnc(-c2ccc(OC(F)(F)F)cc2)c1)N(CC)S(=O)(=O)c1ccc(F)cc1` [Example 3, 2-[(4-fluorophenyl)sulfonyl-ethyl-amino]-N-[[2-[4-(trifluoromethoxy)phenyl]-4-pyridyl]methyl]prop-2-enamide] came in with an inhibition at 10 µM of 95% and an IC50 of 93 nM.
Compound `C=C(C(=O)NCc1ccnc(-c2ccc(OC(F)(F)F)cc2)c1)N(C)S(=O)(=O)c1ccc(C)cc1` [Example 6, 2-(methyl(p-tolylsulfonyl)amino)-N-[[2-[4-(trifluoromethoxy)phenyl]-4-pyridyl]methyl]prop-2-enamide] came in with an inhibition at 10 µM of 100% and an IC50 of 355 nM.
Taken in the same sequence, the figures for `C=C(C(=O)NCc1cccc(-c2ccc(C(F)(F)F)cc2)c1)N(CC)S(=O)(=O)c1ccc(F)cc1` [Example 8, 2-[ethyl-(4-fluorophenyl)sulfonyl-amino]-N-[[3-[4-(trifluoromethyl)phenyl]phenyl]methyl]prop-2-enamide] were 100% and 76 nM.
Taken in the same sequence, the figures for `C=C(C(=O)NCc1cccc(-c2ccc(C(F)(F)F)cc2)c1)N(C)S(=O)(=O)c1ccc(Cl)cc1` [Example 9, 2-[(4-chlorophenyl)sulfonyl-methyl-amino]-N-[[3-[4-(trifluoromethyl)phenyl]phenyl]methyl]prop-2-enamide] were 98% and 68 nM.
Taken in the same sequence, the figures for `C=C(C(=O)NCc1ccnc(-c2ccc(C(F)(F)F)cc2)c1)N(CC)S(=O)(=O)c1ccc(Cl)s1` [Example 12, 2-[(5-chloro-2-thienyl)sulfonyl-ethyl-amino]-N-[[2-[4-(trifluoromethyl)phenyl]-4-pyridyl]methyl]prop-2-enamide] were 100% and 33 nM.
Compound `C=C(C(=O)NCc1cc(-c2ccc(C(F)(F)F)cc2)nc(N2CCCC2)c1)N(C)S(=O)(=O)c1ccc(Cl)cc1` [Example 13, 2-[(4-chlorophenyl)sulfonyl-methyl-amino]-N-[[2-pyrrolidin-1-yl-6-[4-(trifluoromethyl)phenyl]-4-pyridyl]methyl]prop-2-enamide] gave an inhibition at 10 µM of 99% and a half-maximal inhibitory concentration (IC50) of 182 nM.
Taken in the same sequence, the figures for `C=C(C(=O)NCc1cc(-c2ccc(OC(F)(F)F)cc2)nc(N2CCOCC2)c1)N(C)S(=O)(=O)c1ccc(Cl)cc1` [Example 16, 2-[(4-chlorophenyl)sulfonyl-methyl-amino]-N-[[2-morpholino-6-[4-(trifluoromethoxy)phenyl]-4-pyridyl]methyl]prop-2-enamide] were 99% and 457 nM.
With `C=C(C(=O)NCc1cc(-c2ccc(OC(F)(F)F)cc2)nc(N2CCOCC2)c1)N(CC)S(=O)(=O)c1ccc(Cl)cc1` [Example 17, 2-[(4-chlorophenyl)sulfonyl-ethyl-amino]-N-[[2-morpholino-6-[4-(trifluoromethoxy)phenyl]-4-pyridyl]methyl]prop-2-enamide], 10 µM produced 98% inhibition and 120 nM corresponded to half-maximal inhibition (IC50).
The matching figures for `C=C(C(=O)NCc1cc(-c2ccc(OC(F)(F)F)cc2)nc(N2CCCC2)c1)N(CC)S(=O)(=O)c1ccc(F)cc1` [Example 18, 2-[ethyl-(4-fluorophenyl)sulfonyl-amino]-N-[[2-pyrrolidin-1-yl-6-[4-(trifluoromethoxy)phenyl]-4-pyridyl]methyl]prop-2-enamide]: 100% and 93 nM.
Taken in the same sequence, the figures for `C=C(C(=O)NCc1cc(-c2ccc(OC(F)(F)F)cc2)nc(-c2ccc(OC(F)(F)F)cc2)c1)N(C)S(=O)(=O)c1ccc(Cl)cc1` [Example 20, N-[[2,6-bis[4-(trifluoromethoxy)phenyl]-4-pyridyl]methyl]-2-[(4-chlorophenyl)sulfonyl-methyl-amino]prop-2-enamide] were 96% and 251 nM.
Regarding `C/C=C(/C(=O)NCc1ccnc(-c2ccc(OC(F)(F)F)cc2)c1)N(C)S(=O)(=O)c1ccc(F)cc1` [Example 21, (Z)-2-[(4-fluorophenyl)sulfonyl-methyl-amino]-N-[[2-[4-(trifluoromethoxy)phenyl]-4-pyridyl]methyl]but-2-enamide], the inhibition at 10 µM turned out to be 100% and the IC50 was determined as 323 nM.
Taken in the same sequence, the figures for `C/C=C(/C(=O)NCc1ccnc(-c2ccc(OC(F)(F)F)cc2)c1)N(CC)S(=O)(=O)c1ccc(F)cc1` [Example 22, (Z)-2-[ethyl-(4-fluorophenyl)sulfonyl-amino]-N-[[2-[4-(trifluoromethoxy)phenyl]-4-pyridyl]methyl]but-2-enamide] were 97% and 246 nM.
In the case of `C/C=C(/C(=O)NCc1cccc(-c2ccc(C(F)(F)F)cc2)c1)N(C)S(=O)(=O)c1ccc(Cl)cc1` [Example 23, (Z)-2-[(4-chlorophenyl)sulfonyl-methyl-amino]-N-[[3-[4-(trifluoromethyl)phenyl]phenyl]methyl]but-2-enamide], the inhibition at 10 µM worked out at 98% and the IC50 was determined as 437 nM.
The matching figures for `C/C=C(/C(=O)NCc1cccc(-c2ccc(C(F)(F)F)cc2)c1)N(CC)S(=O)(=O)c1ccc(Cl)cc1` [Example 24, (Z)-2-[(4-chlorophenyl)sulfonyl-ethyl-amino]-N-[[3-[4-(trifluoromethyl)phenyl]phenyl]methyl]but-2-enamide]: 97% and 724 nM.
Taken in the same sequence, the figures for `CCN(C1(C(=O)NCc2ccnc(-c3ccc(C(F)(F)F)cc3)c2)CC1)S(=O)(=O)c1ccc(F)cc1` [Example 25, 1-[ethyl-(4-fluorophenyl)sulfonyl-amino]-N-[[2-[4-(trifluoromethyl)phenyl]-4-pyridyl]methyl]cyclopropanecarboxamide] were 100% and 76 nM.
Taken in the same sequence, the figures for `CCN(C1(C(=O)NCc2ccnc(-c3ccc(OC(F)(F)F)cc3)c2)CC1)S(=O)(=O)c1ccc(Cl)cc1` [Example 27, 1-[(4-chlorophenyl)sulfonyl-ethyl-amino]-N-[[2-[4-(trifluoromethoxy)phenyl]-4-pyridyl]methyl]cyclopropanecarboxamide] were 100% and 135 nM.
The compound `CCN(C1(C(=O)NCc2ccnc(-c3ccc(OC(F)(F)F)cc3)c2)CC1)S(=O)(=O)c1ccc(Cl)s1` [Example 28, 1-[(5-chloro-2-thienyl)sulfonyl-ethyl-amino]-N-[[2-[4-(trifluoromethoxy)phenyl]-4-pyridyl]methyl]cyclopropanecarboxamide] gave an inhibition at 10 µM of 100% and an IC50 of 129 nM.
The matching figures for `CCN(C1(C(=O)NCc2cccc(-c3ccc(C(F)(F)F)cc3)c2)CC1)S(=O)(=O)c1ccc(F)cc1` [Example 29, 1-[ethyl-(4-fluorophenyl)sulfonyl-amino]-N-[[3-[4-(trifluoromethyl)phenyl]phenyl]methyl]cyclopropanecarboxamide]: 100% and 138 nM.

As usually defined, the inhibition is the percentage by which the read-out fell short of the control. For orientation: IC50 means the midpoint of a concentration-inhibition curve.
